Patent publication US10272124B2, “Use of helminthostachys, ugonins or flavone-based compounds for the treatment or prevention of metabolic diseases” (National Research Institute of Chinese Medicine, Ministry …, priority 2016, dated 2019)

system: Akt; experiment: Akt kinase activity assay (GSK3-α phosphorylation, Western blotting); type: biochemical; conditions: not given
Protocol: Akt kinase activity was determined by commercial Akt assay kit according to the manufacturer's directions. Phosphorylation states of GSK3-α were determined by Western blotting, so as to evaluate the effect of various ugonins on Akt activity.

| SMILES | Akt activity |
| --- | --- |
| C=C1CCCC(C)(C)[C@H]1Cc1c(O)cc2oc(-c3ccc(O)c(O)c3)cc(=O)c2c1O [ugonin J, (R)-2-(3,4-dihydroxyphenyl)-6-((2,2-dimethyl-6-methylenecyclohexyl)methyl)-5,7-dihydroxy-4H-chromen-4-one] | promote Akt activity |

system: BRIN-BD11 cells; experiment: Glucose stimulated insulin secretion (HTRF insulin assay); type: cell-based, rat; conditions: below the concentration of 20 μM; 16.7 mM glucose, 20 min
Protocol: The clonal rat pancreatic β-cell line (BRIN-BD11) was grown as a monolayer in culture dishes at 37° C. under 5% CO2/air with 90% humidity. Cells were maintained in RPMI 1640 medium containing 10% foetal bovine serum and 5% penicillin and streptomycin mixture.
BRIN-BD11 cells were plated on 24-well plates (0.5×10^5 cells/well) and incubated for 48 hours with media containing 5.6 mM glucose. Before performing acute insulin secretion test, cells were pre-incubated with 1.1 mM glucose in Krebs-Ringer Bicarbonate Buffer for 45 min at 37° C. Then, cells were challenged with vehicle (DMSO) or various ugonins in 16.7 mM glucose in Krebs-Ringer Bicarbonate Buffer for 20 min. The media were collected for insulin determination. Insulin concentrations were quantified by the Homogeneous Time-Resolved Fluorescence (HTRF) insulin assay and normalized to a million of total cell numbers.
Data were presented as mean±standard error of the mean. Statistical analyses were performed using GraphPad Prism (GraphPad, CA, USA). Single parameter-based comparisons were obtained from the unpaired student's t-test. P values less than 0.05 and 0.01 were considered to be significant.

| SMILES | insulin secretion of BRIN-BD11 cells |
| --- | --- |
| COc1c(-c2ccc(O)cc2)oc2c3c(cc(O)c2c1=O)OC(C)C3(C)C (stereo not shown) [ugonin C, 5-hydroxy-2-(4-hydroxyphenyl)-3-methoxy-8,9,9-trimethyl-8,9-dihydro-4H-furo[2,3-h]chromen-4-one] | significantly enhance |
| CC1Oc2cc(O)c3c(=O)c(O)c(-c4ccc(O)cc4)oc3c2C1(C)C (stereo not shown) [ugonin F, 3,5-dihydroxy-2-(4-hydroxyphenyl)-8,9,9-trimethyl-8,9-dihydro-4H-furo[2,3-h]chromen-4-one] | significantly enhance |
| C=C1CCCC(C)(C)[C@H]1Cc1c(O)cc2oc(-c3ccc(O)c(O)c3)cc(=O)c2c1O [ugonin J, (R)-2-(3,4-dihydroxyphenyl)-6-((2,2-dimethyl-6-methylenecyclohexyl)methyl)-5,7-dihydroxy-4H-chromen-4-one] | significantly enhance |
| C=C1CCCC(C)(C)[C@H]1Cc1c(OC)cc2oc(-c3ccc(O)c(O)c3)cc(=O)c2c1O [ugonin K, (R)-2-(3,4-dihydroxyphenyl)-6-((2,2-dimethyl-6-methylenecyclohexyl)methyl)-5-hydroxy-7-methoxy-4H-chromen-4-one] | significantly enhance |
| CC1=CCCC(C)(C)C1Cc1c(O)c(O)cc2oc3c(=O)c4c(O)cc(O)cc4oc3c12 (stereo not shown) [ugonin M, 1,3,7,8-tetrahydroxy-6-((2,6,6-trimethylcyclohex-2-en-1-yl)methyl)-11H-benzofuro[3,2-b]chromen-11-one] | significantly enhance |
| CC1Oc2cc3oc(-c4ccc(O)c(O)c4)cc(=O)c3c(O)c2C1(C)C (stereo not shown) [ugonin T, 7-(3,4-dihydroxyphenyl)-4-hydroxy-2,3,3-trimethyl-2,3-dihydro-5H-furo[3,2-g]chromen-5-one] | significantly enhance |
